{
  "source": "patent US11813277B2",
  "about": "“Methods and agents for modulating inflammation” (The Regents of the University of California, priority 2018, dated 2023)",
  "key": {"3T3-L1 adipocytes": {"test_system": "3T3-L1 adipocytes", "assay": "Maximal respiration in 3T3-L1 adipocytes (positive control)", "format": "cell-based", "settings": "3 μM etomoxir", "description": "(§1) All respirometry studies were conducted in either a Seahorse XF96 or XFe96 Analyzer. All experiments were conducted at 37° C., and at pH 7.4 (intact cells) or 7.2 (permeabilized cells and isolated mitochondria). Calculation of respiratory parameters was made according to standard protocols (Divakaruni, A. S., Paradyse, A., Ferrick, D. A., Murphy, A. N., and Jastroch, M. (2014a) Analysis and interpretation of microplate-based oxygen consumption and pH data. Meth. Enzym 547, 509-54), and all rates were corrected for non-mitochondrial respiration/background signal by subtracting the oxygen consumption rate insensitive to rotenone plus antimycin A.\nDetailed description of FIG. 5. (FIG. 5A) Maximal FCCP-stimulated respiration in response to 3 μM etomoxir in six cell types (experimental conditions in Materials and Methods). […] (n≥3 independent biological replicates). (FIG. 5B) (Left) Maximal respiration in HepG2 cells offered 8 mM glucose, 2 mM glutamine, and 2 mM pyruvate in the experimental medium with BPTES and UK5099 (both at 3 μM)±3 μM etomoxir. (n=4 independent biological replicates). (Right) Maximal respiration in 3T3-L1 adipocytes offered 1 mM glucose and 0.5 mM carnitine in the experimental medium with increasing concentrations of etomoxir. (n=3 independent biological replicates). […]"}, "HepG2 cells": {"test_system": "HepG2 cells", "assay": "Palmitate-driven respiration in intact HepG2 cells (Seahorse)", "format": "cell-based", "description": "as §1\nPalmitate oxidation in intact cells (FIG. 1A, FIG. 1B) was assessed by measuring palmitate-driven respiration that was sensitive to low concentrations of etomoxir (Rogers, G. W., Nadanaciva, S., Swiss, R., Divakaruni, A. S., and Will, Y. (2014) Assessment of fatty acid beta oxidation in cells and isolated mitochondria. Curr. Protoc. Toxicol. 60, 25.3, 1-19). […] Respiration was measured under basal conditions as well as after injection of 2 μM oligomycin, two sequential additions of 1 μM FCCP, followed by 0.2 μM rotenone with 1 μM antimycin A. Etomoxir was added to the assay medium 30 min. prior to measurements of basal respiratory rates."}, "[1]": {"test_system": "isolated rat liver mitochondria", "assay": "ADP- vs FCCP-stimulated respiration in isolated liver mitochondria", "format": "biochemical", "settings": "high etomoxir (100 μM), pyruvate/malate", "description": "Mouse liver mitochondria were isolated according to standard techniques (Rogers, G. W., Brand, M. D., Petrosyan, S., Ashok, D., Elorza, A. A., Ferrick, D. A., and Murphy, A. N. (2011) High throughput microplate respiratory measurements using minimal quantities of isolated mitochondria. PLoS One. 6, e21746). The liver from a male mouse was minced and rinsed several times in MSHE [70 mM sucrose, 210 mM mannitol, 5 mM HEPES (pH 7.2), and 1 mM EGTA with 0.5% (w/v) fatty acid-free BSA] to remove blood. Tissue was disrupted using a drill-driven Teflon-on-glass Dounce homogenizer (between 2-4 strokes). The homogenate was centrifuged at 800 g for 10 min and the supernatant was filtered through cheesecloth and centrifuged at 8000 g for 10 min. […]\nPhosphorylating respiration was measured in isolated liver mitochondria (1.5 μg/well) as previously described (Rogers, G. W., Brand, M. D., Petrosyan, S., Ashok, D., Elorza, A. A., Ferrick, D. A., and Murphy, A. N. (2011) High throughput microplate respiratory measurements using minimal quantities of isolated mitochondria. PLoS One. 6, e21746), and offered 10 mM pyruvate, 1 mM malate, and 4 mM ADP. Uncoupler stimulated respiration was measured after addition of oligomycin (3 ng/mg mitochondrial protein) and FCCP (4 μM). […]"}, "CPT-1a and CPT-1b": {"test_system": "CPT-1a and CPT-1b", "settings": "upon enzymatic conversion to etomoxiryl CoA; cited from earlier work"}},
  "data": [
    {"smiles": "CCOC(=O)[C@@]1(CCCCCCOc2ccc(Cl)cc2)CO1", "note": "[etomoxir]", "values": [
      {"measurement": "respiration", "setting": "3T3-L1 adipocytes", "value": "sufficient to inhibit respiration"},
      {"measurement": "FCCP-stimulated respiration", "setting": "HepG2 cells; 1 μM etomoxir", "value": "largely sensitive"},
      {"measurement": "half-maximal inhibitory concentration (EC50) for uncoupler-stimulated respiration", "setting": "HepG2 cells; intact HepG2, albumin-buffered palmitate", "value": "sub-micromolar"},
      {"measurement": "respiration driven by ADP versus FCCP", "setting": "[1]", "value": "greater inhibitory effect on respiration driven by ADP versus FCCP"},
      {"measurement": "IC50", "setting": "CPT-1a and CPT-1b", "value": "10 to 700", "unit": "nM"}
    ]}
  ]
}
